Counter-ions that a name gives are not always drawn.
Biological target: T1, human GSK3β enzyme (Homo sapiens, UniProt P49841)
T1 construct: His6 (N); purchased Millipore 14-306; host or cells: baculovirus / Sf21 insect cells
Assay: In vitro GSK3β kinase assay (FRET, Z'-LYTE), Test (a)
Type: biochemical
Conditions: read-out: IC50 versus human GSK3β enzyme
Source text: This biochemical assay used a Fluorescence Resonance Energy Transfer (FRET)-based, coupled-enzyme format to determine the ability of test compounds to inhibit substrate phosphorylation by recombinant GSK3β serine/threonine kinase (Kleman-Leyer, K. et al. Drug Disc. Devel. 2003, 6:81-2). The substrate used in this assay was Z′-LYTE™ ser/Thr 9 peptide and the FRET assay kit was obtained from Invitrogen (Paisley, UK, catalogue number PV3324). N-terminal His6-tagged recombinant human GSK313, with an H350 L mutation, was expressed in baculovirus in Sf21 insect cells, purified and obtained from Millipore (Billerica, Mass., USA, catalogue number 14-306 Human).
Test compounds were prepared as 10 mM stock solutions in dimethylsulphoxide (DMSO) and diluted in DMSO as required. Aliquots (2.5 μl) of compound dilutions were added to the wells of an Optiplate-F PerkinElmer 384-well plate (Massachusetts, USA, catalogue number 6007270). Control wells that produced a maximum signal corresponding to maximum enzyme activity were created by using 100% phosphorylated peptide obtained from Invitrogen (Paisley, UK, catalogue number PV3326). A 5 μl aliquot of 100% phosphorylated peptide (100 μM in 1.33× kinase buffer) was added to all maximum control wells. 2.5 μl of 4% DMSO solution (v/v) in 1.33× kinase buffer was added to maximum control wells. Control wells that produced a minimum signal corresponding to 100% inhibited enzyme were created by adding 2.5 μl of 40 μM Staurosporine in 1.33× kinase buffer containing 4% DMSO (v/v). A 5 μl mixture of GSK3β (100 ng/μl) enzyme and non-phosphorylated substrate (Z-LYTE™ ser/Thr 9 peptide, 100 μM) in a 1.33× kinase buffer solution was added to each well except maximum control wells and the assay plate centrifuged at 270 g for 1 minute. The kinase buffer used 1.33× was obtained from Invitrogen (Paisley, UK, catalogue number PV3189) and contained 67 mM HEPES (pH 7.5), 13 mM MgCl2, 1.3 mM EGTA, 0.01% BRIJ-35. Then 2.5 μl adenosine triphosphate (28 μM) in kinase buffer was added per well, centrifuged at 270 g for 1 minute and then the assay plate was shaken for 1 hour at room temperature. A proprietary development solution was prepared by adding 58 μl of development reagent A (Invitrogen, Paisley, UK, catalogue number PV3297) to 2142 μl of development reagent B (Invitrogen, Paisley, UK, catalogue number P3127). […]
The resultant signals arising from laser light excitation at 400 nm were read using a Perkin Elmer Envision spectrophotometer (Perkin Elmer, Massachusetts, USA). […] A ratiometric method, which calculates the ratio (the Emission Ratio) of donor emission to acceptor emission after excitation of the donor fluorophore at 400 nm, quantitates reaction progress, as shown in the equation below. […]

T1 sequence (P49841 whole entry): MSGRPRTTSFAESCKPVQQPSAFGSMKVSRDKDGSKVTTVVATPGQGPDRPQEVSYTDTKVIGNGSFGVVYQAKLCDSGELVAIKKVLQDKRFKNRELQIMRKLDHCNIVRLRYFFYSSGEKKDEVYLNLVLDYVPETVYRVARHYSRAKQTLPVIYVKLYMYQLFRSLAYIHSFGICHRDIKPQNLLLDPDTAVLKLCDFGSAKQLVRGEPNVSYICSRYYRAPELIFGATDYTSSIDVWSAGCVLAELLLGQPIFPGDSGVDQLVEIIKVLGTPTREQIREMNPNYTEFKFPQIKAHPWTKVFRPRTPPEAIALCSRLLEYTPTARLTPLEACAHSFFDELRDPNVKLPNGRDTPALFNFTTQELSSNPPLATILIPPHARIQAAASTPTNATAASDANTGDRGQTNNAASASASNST

COCCCNCCCc1ccc(-c2cnc(N)c(C(=O)Nc3cccnc3)n2)cc1 [Example 1, 3-Amino-6-(4-{3-[(3-methoxypropyl)amino]propyl}phenyl)-N-pyridin-3-ylpyrazine-2-carboxamide tri-hydrochloride]
IC50: ~35 nM
